Results as given in patent publication US5084082A, “Soybean plants with dominant selectable trait for herbicide resistance” (priority 1990, dated 1992).

Experiments:
Assay in all cases: Postemergence herbicide spray test of W4-4 (Table VII-A)
Type in all cases: in vivo, soybean
Conditions in all cases: two weeks after treatment
Mutant W4-4 = test system: Mutant W4-4
Protocol: (§1) To investigate this hypothesis, a postemergence herbicide spray test was conducted to compare the reaction of W4-4 to both W20 and wild-type Williams. The applicant was particularly interested in the resistance of W4-4 to herbicide treatments that were injurious to both Williams and W20 in a previous test (Table VII). […] Twenty-four plants each of W4-4, W20, and Williams were planted in separate 10 cm pots and allowed to grow to the second trifoliolate stage. Each pot constituted a single experimental unit receiving a single herbicide treatment. Herbicide treatments (Table VIIA) were applied as described for the first postemergence test and were replicated twice. Control plants were sprayed with the spray carrier solution only (water with 0.25% X77 surfactant). At two weeks after treatment, each plant was rated for % herbicide injury as described in Table VIII. Analysis of variance on injury ratings was performed separately for each herbicide to calculate treatment means and standard errors. Fisher's least significant difference (LSD) was used to determine the significance of line means differences at each herbicide rate using the 95% level of confidence. […]

Williams 82 = test system: Williams 82
Protocol: as §1

mutant W20 = test system: mutant W20
Protocol: as §1

`COC(=O)c1cccnc1S(=O)(=O)NC(=O)Nc1nc(OC)cc(OC)n1` [Compound 8, Methyl 2-[[[[(4,6-dimethoxy-2-pyrimidinyl)amino]carbonyl]amino]sulfonyl]-3-pyridinecarboxylate] gave a mean % injury (Mutant W4-4; W4-4, 4 g/ha postemergence) of 48%, a mean % injury (Mutant W4-4; W4-4, 16 g/ha postemergence) of 48% and a mean % injury (Mutant W4-4; W4-4, 32 g/ha postemergence) of 65%. For the same molecule, the mean % injury (Williams 82; WM82, 4 g/ha postemergence) was 90%, the mean % injury (Williams 82; WM82, 16 g/ha postemergence) was 95% and the mean % injury (Williams 82; WM82, 32 g/ha postemergence) was 95%. The mean % injury (mutant W20; W20, 4 g/ha postemergence) was 90%, the mean % injury (mutant W20; W20, 16 g/ha postemergence) was 93% and the mean % injury (mutant W20; W20, 32 g/ha postemergence) was 95%.
